Data: US20240067603A1, “CUBANYL BIGUANIDE COMPOUNDS” (REGENTS OF THE UNIVERSITY OF MINNESOTA, priority 2020, published 2024)
Like-named read-outs stand apart in the source and are kept apart here.

Legend:
MCF-7 tumors = conditions: background statement; cited from earlier work
breast cancer cell lines = conditions: background statement; read-out: IC50, growth of breast cancer cell lines; cited from earlier work
T47D = experiment: Inhibition of mammary carcinoma cell line T47D; assay type: cell-based; conditions: Table 5, human, ERα+, HER2−
Protocol: 3-(4,5-Dimethylthiazol-2-yl)-2,5-diphenyltetrazolium Bromide (MTT) Cell Proliferation Assay. To cells grown in 96-well-tissue culture plate, 20 μl/well of MTT solution (5 mg/ml in PBS) was added. After 1-2 hours incubation at 37° C., the plate was centrifuged. Supernatant was discarded and 100 μl DMSO was added to dissolve water insoluble formazan, and the absorbance was read at 540 nm with a plate reader.

CYP2C8 [1] = biological target: T1, CYP2C8 (Homo sapiens, UniProt P10632); experiment: CYP2C8-mediated arachidonic acid epoxygenase EET biosynthesis; assay type: biochemical
T1 construct: purchased Corning; host or cells: insect cells (microsomes)
T1 sequence (P10632 1-490): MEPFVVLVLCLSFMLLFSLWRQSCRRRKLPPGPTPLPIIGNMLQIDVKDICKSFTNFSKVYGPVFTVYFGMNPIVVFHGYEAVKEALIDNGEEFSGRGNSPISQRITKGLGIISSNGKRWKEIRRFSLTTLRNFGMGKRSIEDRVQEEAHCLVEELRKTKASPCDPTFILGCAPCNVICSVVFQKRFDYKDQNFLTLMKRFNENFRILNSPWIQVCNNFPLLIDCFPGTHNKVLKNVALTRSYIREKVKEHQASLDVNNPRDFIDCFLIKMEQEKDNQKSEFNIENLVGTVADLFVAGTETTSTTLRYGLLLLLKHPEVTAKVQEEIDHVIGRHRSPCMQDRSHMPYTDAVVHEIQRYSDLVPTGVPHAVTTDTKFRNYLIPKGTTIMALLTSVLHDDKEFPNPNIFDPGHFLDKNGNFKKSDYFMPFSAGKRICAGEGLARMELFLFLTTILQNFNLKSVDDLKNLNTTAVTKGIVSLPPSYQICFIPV
Protocol: Recombinant Microsomal CYP-mediated EET Biosynthesis. CYP Supersomes™ (Corning, NY) (1 μM, final concentration) were incubated at 37° C. for 30 min in the presence of AA (120 μM) in 50 μl potassium phosphate buffer, (50 mM, pH 7.4), containing 1 mM EDTA and 1 mM NADPH. Reactions were terminated by addition of 50 μL of acetonitrile spiked with ^13C-EET internal standards followed by vigorous vortexing. After centrifugation at 16,000×rpm for 10 minutes to precipitate proteins and other insoluble debris and 80 μL supernatant was transferred into HPLC vials and analyzed by with an LC-ESI/MRM/MS method.
LC-ESI/MRM/MS Method for EET Measurement. EETs were measured by an LC-ESI/MRM/MS analytical method on a ThermoFisher Vantage triple quadrupole mass spectrometer (ThermoFisher, San Jose, CA) coupled with an UltiMate 3000 HPLC (ThermoFisher, San Jose, CA), using argon as the collision gas. Negative ion monitoring was performed at the following diagnostic product ions: 319 m/z→155 m/z for 8,9-EET; 319 m/z→179 m/z for 11,12-EET; 319 m/z→219 m/z for 14,15-EET; 339 m/z→163 m/z for 8,9-[^13C-20]EET; 339 m/z→233 m/z for 11,12-[^13C-20]EET; and 339 m/z→259 m/z for 14,15-[^13C-20]EET. Base-line resolution of EET regioisomers was achieved on a Phenomenex Luna C18 (2) reverse phase capillary column (250×0.5 mm, 5-μm particles) using the following mobile phase combinations: isocratic 5% B for 5 min, gradient 5-70% B for 5 min, hold at 70% for 30 min and then 95% for 10 min; A: 0.01% acetic acid in water, B: 0.01% acetic acid in acetonitrile; 10 μl/min flow rate. A standard curve was obtained by linear regression of the peak area ratio of authentic EET regioisomers against internal standards. The amount of EETs in samples was calculated according to the standard curve.

CYP2C8 [2] = biological target: T1, CYP2C8; experiment: Stability with recombinant human CYP2C8; assay type: in vitro ADME; conditions: 10 μM HCB, recombinant human CYP2C8, NADPH 2 mM
Protocol: Stability of HCB with recombinant human CYP3A4 and CYP2C8 enzymes was evaluated. 10 μM HCB was tested wich CYP3A4 and 2C8 (200 pmol/L) (Table 8). NADPH (2 mM) was added as a cofactor. Total volume was 200 μL.
HCB was incubated for 0, 30, or 60 min at 37° C. Incubations were quenched with 2 volumes of acetonitrile followed by centrifugation for 10 min at 16,000 g.

## CCCCCCNC(=N)NC(=N)NCc1ccccc1 [HBB, N1-hexyl-N5-benzyl-biguanide]
MCF-7 tumors
  growth of the MCF-7 ER+ mammary tumor model: inhibits growth
Breast cancer cell lines
  IC50: 3 to 30 µM
T47D
  IC50: 22 µM

## CCCCCCNC(=N)NC(=N)NCC12C3C4C5C3C1C5C42 (centres unmarked) [HCB, Hexyl Cubanomethyl Biguanide]
CYP2C8 [1]; (±)8,9-EET, read-out: IC50, CYP2C8 biosynthesis of (±)8,9-EET
  IC50: 31 µM
CYP2C8 [1]; (±)11,12-EET, read-out: IC50, CYP2C8 biosynthesis of (±)11,12-EET
  IC50: 52 µM
CYP2C8 [1]; (±)14,15-EET biosynthesis
  fold lower inhibition of CYP2C8 (vs CYP3A4): 10 fold
CYP2C8 [1]; (±)14,15-EET, read-out: inhibition of CYP2C8-mediated biosynthesis of (±)14,15-EET
  IC50: 42 µM
CYP2C8 [2]
  parent metabolite peak area after 60 min: 99.78%
